Results: patent publication US7465736B2, “Azole methylidene cyanide derivatives and their use as protein kinase modulators” (Laboratoires Serono S.A., priority 2002, dated 2008)

How the values were obtained:
rat JNK3 = rat JNK3 (Rattus norvegicus, UniProt P49187); assay: JNK3 in vitro assay (33P incorporation into biotinylated GST-c-Jun, SPA beads); assay type: biochemical; conditions: in vitro potency on rat JNK3
Description: The compounds of the present invention are inhibitors of JNKs. The phosphorylation of c-jun by JNK2 or JNK3 may be determined by monitoring the incorporation of ^33P into c-jun following the protocol below. The inhibitory activity of the compounds according to formula I, towards c-jun phosphorylation through JNK, is determined by calculating phosphorylation activity in the presence or absence of compounds according to formula I.
JNK3 and/or -2 assays are performed in 96 well MTT plates: incubation of 0.5 μg of recombinant, pre-activated GST-JNK3 or GST-JNK2 with 1 μg of recombinant, biotinylated GST-c-Jun and 2 μM ^33γ-ATP (2 nCi/μl), in the presence or absence of compounds according to formula I and in a reaction volume of 50 μl containing 50 mM Tris-HCl, pH 8.0; 10 mM MgCl2; 1 mM Dithiothreitol, and 100 μM NaVO4. The test compound according to formula I is used in concentrations of 10, 3, 033, 0.1, 0.033, 0.01, 0.0033, 0.001 μM. The incubation is performed for 120 min. at R.T and stopped upon addition of 200 μl of a solution containing 250 μg of Streptavidine-coated SPA beads (Amersham, Inc.)*, 5 mM EDTA, 0.1% Triton X-100 and 50 μM ATP, in phosphate saline buffer.
After incubation for 60 minutes at RT, beads are sedimented by centrifugation at 1500×g for 5 minutes, resuspended in 200 μl of PBS containing 5 mM EDTA, 0.1% Triton X-100 and 50 μM ATP and the radioactivity measured in a scintillation β counter, following sedimentation of the beads as described above.

human GSK3 β = human GSK3 β (Homo sapiens, UniProt P49841); assay: GSK3β in vitro assay (33P incorporation into phospho GS2 peptide, scintillation counting); assay type: biochemical; conditions: in vitro potency on human GSK3 β
Description: GSK3β Assay (see Naerum et al., Bioorg. Med. Chem. Lett 12 p. 1525-1528 (2002))
In a final reaction volume of 25 μl, the protein kinase GSK3β (h) (5-10 mU) is incubated with 8 mM MOPS at a pH of 7.0, in 0.2 mM EDTA, as well as 20 μM of the peptide […](p)EDEEE (SEQ ID NO: 1; a phosphor GS2 peptide being the GSK3 substrate in this assay), 10 mM Mg Acetate and [γ-^33P-ATP] (Specific activity approx. 500 cpm/pmol, concentration as required). The reaction is initiated by the addition of Mg^2+[γ-^33P-ATP]. The test compound according to formula I is used in concentrations of 100, 25, 5, 1.25, 0.315, 0.078, 0.0195, 0.0049, 0.0012, 0.00031 μM. After incubations for 40 minutes at room temperature, the reaction is stopped by the addition of 5 μl of a 3% phosphoric acid solution. 10 μl of the reaction is then spotted onto a P30 filtermat and washed three times for 5 minutes in 50 mM phosphoric acid and once in methanol prior to drying and the degree of phosphorylation of the substrate is determined by scintillation counting.

human GSK3 β, sequence (P49841 whole entry): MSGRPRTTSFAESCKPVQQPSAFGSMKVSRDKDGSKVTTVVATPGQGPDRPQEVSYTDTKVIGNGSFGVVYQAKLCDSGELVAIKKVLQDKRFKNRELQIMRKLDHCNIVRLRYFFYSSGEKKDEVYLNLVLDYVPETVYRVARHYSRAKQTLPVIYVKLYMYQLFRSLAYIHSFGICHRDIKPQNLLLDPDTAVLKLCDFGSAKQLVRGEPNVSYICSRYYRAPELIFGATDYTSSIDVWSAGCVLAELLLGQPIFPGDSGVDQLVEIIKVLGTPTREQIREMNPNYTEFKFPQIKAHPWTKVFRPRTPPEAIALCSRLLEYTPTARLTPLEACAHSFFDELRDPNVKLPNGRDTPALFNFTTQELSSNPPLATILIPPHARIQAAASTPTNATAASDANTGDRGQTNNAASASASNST
rat JNK3, sequence (P49187 whole entry): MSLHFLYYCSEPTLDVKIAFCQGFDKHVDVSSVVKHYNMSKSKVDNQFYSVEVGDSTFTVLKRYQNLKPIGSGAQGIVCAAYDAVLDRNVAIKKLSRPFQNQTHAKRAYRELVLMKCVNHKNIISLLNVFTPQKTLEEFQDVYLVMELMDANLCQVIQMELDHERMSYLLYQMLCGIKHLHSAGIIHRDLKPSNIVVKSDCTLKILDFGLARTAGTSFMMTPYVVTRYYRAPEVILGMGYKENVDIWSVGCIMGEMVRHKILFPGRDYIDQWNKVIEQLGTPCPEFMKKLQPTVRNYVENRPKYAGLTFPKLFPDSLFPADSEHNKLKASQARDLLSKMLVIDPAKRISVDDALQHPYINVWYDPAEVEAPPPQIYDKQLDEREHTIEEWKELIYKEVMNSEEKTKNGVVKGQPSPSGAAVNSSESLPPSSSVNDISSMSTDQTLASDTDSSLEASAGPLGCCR

`CCC1=CS/C(=C(/C#N)c2ccnc(NC3CCN(S(C)(=O)=O)CC3)n2)N1` was tested, and the IC50 (rat JNK3) was < 10 µM.
For `N#C/C(=C1\NC(C(=O)O)=CS1)c1ccnc(NCCCN2CCCC2=O)n1` [2-[cyano(2-{[3-(2-oxopyrrolidin-1-yl)propyl]amino}pyrimidin-4-yl)methylene]-2,3-dihydro-1,3-thiazole-4-carboxylic acid], the IC50 (human GSK3 β) was < 10 µM and the IC50 (rat JNK3) was < 10 µM.
With `CCC1=CS/C(=C(/C#N)c2ccnc(NCCc3ccc(S(N)(=O)=O)cc3)n2)N1` [4-[2-({4-[cyano(4-ethyl-1,3-thiazol-2(3H)-ylidene)methyl]pyrimidin-2-yl}amino)ethyl]benzenesulfonamide] the IC50 (human GSK3 β) was < 10 µM and the IC50 (rat JNK3) was < 10 µM.
For `N#C/C(=C1\NC(c2ccccc2)=CS1)c1ccnc(NCCNc2ccc(C#N)cn2)n1` [6-{[2-({4-[cyano(4-phenyl-1,3-thiazol-2(3H)-ylidene)methyl]pyrimidin-2-yl}amino)ethyl]amino}nicotinonitrile], the IC50 (rat JNK3) was < 10 µM.
With `CC1=CS/C(=C(/C#N)c2ccnc(N3CCC(Nc4ncccn4)CC3)n2)N1` [(4-methyl-1,3-thiazol-2(3H)-ylidene){2-[4-(pyrimidin-2-ylamino)piperidin-1-yl]pyrimidin-4-yl}acetonitrile] the IC50 (human GSK3 β) was < 10 µM.
For `N#C/C(=C1\NC(c2ccccc2Cl)=CS1)c1ccnc(NC2CC2)n1` [[4-(2-chlorophenyl)-1,3-thiazol-2(3H)-ylidene][2-(cyclopropylamino)pyrimidin-4-yl]acetonitrile], the IC50 (human GSK3 β) was < 10 µM.
For `CN(C)c1nc(/C(C#N)=C2/NC(c3ccccc3)=CS2)nc(N2CCCC3CCCCC32)n1` (centres unmarked) [[4-(dimethylamino)-6-(octahydroquinolin-1(2H)-yl)-1,3,5-triazin-2-yl](4-phenyl-1,3-thiazol-2(3H)-ylidene)acetonitrile], the IC50 (human GSK3 β) was < 10 µM.
With `CC1=CS/C(=C(/C#N)c2cc(NCc3ccco3)ncn2)N1` [{6-[(2-furylmethyl)amino]pyrimidin-4-yl}(4-methyl-1,3-thiazol-2(3H)-ylidene)acetonitrile] the IC50 (human GSK3 β) was < 10 µM.
With `CC1=CS/C(=C(/C#N)c2cc(N(C)c3ccccc3)nc(NCCc3cccnc3)n2)N1` [{6-[methyl(phenyl)amino]-2-[(2-pyridin-3-ylethyl)amino]pyrimidin-4-yl}(4-methyl-1,3-thiazol-2(3H)-ylidene)acetonitrile] the IC50 (human GSK3 β) was < 10 µM.
